Results on 5 compounds are retold here after article PMC5774841, “High-level production and purification in a functional state of an extrasynaptic gamma-aminobutyric acid type A receptor containing α4β3δ subunits” (PLoS ONE, 2018).

Where two headings read alike, the source gives them in different places.

In one test the target is T1, α4β3N–Flag–δ GABAAR (Homo sapiens, UniProt O14764+P28472+P48169).
T1 construct: expressed in transfected cells
The experiment in a line: Whole-cell patch-clamp of GABA-elicited currents in the induced α4β3N-Flag-δ cell line. Format: cell-based. To be noted: for enhancement of maximum GABA elicited currents: drug 10 μM co-applied for 4 s, notch protocol. As for the experimental part: HEK 293 cells stably expressing tetracycline inducible α4β3N-Flag-δ or N-Flag-α4β3 GABAA receptors were cultured on glass coverslips and induced with tetracycline (2μg/ml) 24 hours before recordings. The coverslips were placed in a recording chamber and perfused with the bath solution. Cells were voltage clamped at -50 mV using the patch clamp amplifier (Axopatch 200A, Molecular Devices, Sunnyvale, CA). GABAA receptor-mediated chloride currents from HEK cells were recorded using the whole-cell configuration of patch-clamp electrophysiology. Data was acquired using Clampex version 8.1 (Molecular Devices), digitized at 10 kHz and filtered at 5 kHz. Current traces were analyzed using Clampfit version 9 (Molecular Devices). Series resistance ranged from 0.5–4 MΩ and cell capacitances from 9–18 pF. Membrane-capacitance and series-resistance were compensated electronically by > 85% with a lag of 10 μ seconds. Drugs were delivered via a multichannel superfusion pipette coupled to a piezoelectric elements that switched superfusion solution in < 1 millisecond. The recording chamber was continuously perfused with the bath solution in mM: 145 NaCl, 5 KCl, 10 HEPES, 2 CaCl2, and 1 MgCl2, 10 glucose, pH 7.4 (pH adjusted with N-methyl glucosamine). The pipette solution for whole-cell recordings contained in mM: 140 KCl, 10 HEPES, 1 EGTA and 2 MgCl2 at pH 7.3 (pH adjusted with KOH). Open pipette resistances ranged from 1.6–3 M. Errors are standard deviation from at least three replicas.
(§1) Statistical analysis for electrophysiology was done using GraphPad Prism 6. […] Analysis of the [^3H]muscimol binding was carried out using Igor Pro 7 (WaveMetrics). For Western blotting, the ratio of the signal intensity of individual antibodies for each sample was determined. Pooled (weighted) mean and standard deviation was determined for each receptor and p value determined by two-tailed unpaired Student’s t-test, using GraphPad QuickCalcs software.

A further test concerns the target T2, N–Flag–α4β3 receptors (Homo sapiens, UniProt P28472+P48169).
T2 construct: expressed in transfected cells
The experiment in a line: Whole-cell patch-clamp of GABA-elicited currents in the control N-Flag-α4β3 cell line. Format: cell-based. To be noted: drug 10 μM co-applied for 4 s, 10 mM GABA, notch protocol. As for the experimental part: HEK 293 cells stably expressing tetracycline inducible α4β3N-Flag-δ or N-Flag-α4β3 GABAA receptors were cultured on glass coverslips and induced with tetracycline (2μg/ml) 24 hours before recordings. The coverslips were placed in a recording chamber and perfused with the bath solution. Cells were voltage clamped at -50 mV using the patch clamp amplifier (Axopatch 200A, Molecular Devices, Sunnyvale, CA). GABAA receptor-mediated chloride currents from HEK cells were recorded using the whole-cell configuration of patch-clamp electrophysiology. Data was acquired using Clampex version 8.1 (Molecular Devices), digitized at 10 kHz and filtered at 5 kHz. Current traces were analyzed using Clampfit version 9 (Molecular Devices). Series resistance ranged from 0.5–4 MΩ and cell capacitances from 9–18 pF. Membrane-capacitance and series-resistance were compensated electronically by > 85% with a lag of 10 μ seconds. […]
Statistical analysis for electrophysiology was done using GraphPad Prism 6. […] For Western blotting, the ratio of the signal intensity of individual antibodies for each sample was determined. Pooled (weighted) mean and standard deviation was determined for each receptor and p value determined by two-tailed unpaired Student’s t-test, using GraphPad QuickCalcs software.

Test [1] concerns the target T3, α4β3N-Flag-δ GABAA receptor in native membranes (Homo sapiens, UniProt O14764+P28472+P48169).
T3 construct: expressed in transfected cells
The experiment in a line: [3H]muscimol binding (filtration assay) to cell membranes. As for the experimental part: Radioactive ligand binding assays were carried out as previously described, with the exception that GABAAR binding sites were assayed at 250 nM [^3H]muscimol because of this receptor’s higher affinity.
as §1
Fig 3 The binding isotherm of the agonist [^3H]muscimol to the α4β3N-Flag-δ GABAA receptor in native membranes and reconstituted into CHAPS/lipid micelles. Binding curves of [^3H]muscimol to α4β3N–Flag–δ GABAΑRs, both, in cell membranes (pmol/mg membrane protein) and after purification and reconstitution into micelles of 5 mM CHAPS and 200 μM DOPC:DOPS:Cholesterol in mole ratio 52:15:33 (pmol/mL). […] The displaceable binding and its standard deviation was determined by subtracting these two values and propagating errors at each total muscimol concentration. The curves were fitted by nonlinear least squares with weighting by standard deviation. These yielded apparent dissociation constants of 9.2 ± 0.6 and 35 ± 12 nM, respectively. The Bmax of the membranes was 22.6 ± 0.5 pmol/mg and for reconstituted receptors in micelles was 19 ± 3 pmol/mL. The Hill coefficients differed little from one (1.07 ± 0.3 and 0.90 ± 0.05 respectively).

The target of test [2] is T4, α4β3N-Flag-δ GABAA receptor reconstituted into CHAPS/lipid micelles (Homo sapiens, UniProt O14764+P28472+P48169).
T4 construct: made in house; DDM solubilization, anti-Flag beads, elution with Flag peptide into CHAPS/lipid
The experiment in a line: [3H]muscimol binding to purified receptor reconstituted into CHAPS/lipid micelles. The procedure: Cells with inducible expression of N-Flag-α4β3 and α4β3N-Flag-δ were induced with tetracycline (1 μg/ml final concentration, Life Technologies) and 5 mM sodium butyrate (Sigma-Aldrich, St. Louis, MO) for 24 hours and harvested in 10 ml per ten 15 cm–dishes of 10 mM HEPES, 1 mM EDTA (buffer A) freshly supplemented with protease inhibitors and 1 mM PMSF (final concentration) at 4°C with all subsequent purification procedures carried out at 4°C. Cells were homogenized with three cycles of 10 s each separated by 30 s intervals (Ultra Turrax T25, IKA Works, Wilmington, NC), followed by 20 strokes in Kontes-Duval glass tissue grinder. Homogenate was centrifuged at 43,000 x g for 30 min at 4°C and the pellet was resuspended in the buffer A and the entire procedure repeated. The resulting pellet was resuspended in the buffer A and a final homogenization carried out by aspiration with a 21-gauge needle and expulsed through 27-gauge needle. Concentration of total protein was assessed with the Pierce BCA protein assay kit (Pierce, Rockford, IL). Under constant stirring, the membrane fraction was solubilized over 30 min by dropwise addition of 30 mM DDM (Anatrace, Maumee, OH) in buffer B (50 mM Tris/HCl, 150 mM NaCl, 2 mM CaCl2, 5 mM KCl, 5 mM MgCl2, 4 mM EDTA, pH 7.5) and 10% glycerol, supplemented with protease inhibitors and 1 mM PMSF, with the volume adjusted to produce an effective protein concentration of 1 mg/ml. Following an additional 2 hours of solubilization, the solution was centrifuged at 45,000 x g for 30 min at 4°C. Insoluble material in the pellet was discarded and the supernatant was stored in liquid nitrogen overnight.
After washing once with buffer B, 2 ml of Flag beads (Sigma-Aldrich) were pre-treated overnight at 4°C on polypropylene columns (Qiagen, Hilden, Germany) with 1.5 ml of 10 mg/ml poly-d-Lysine hydrobromide with gentle agitation. On the following day, beads were washed three times with six 2–ml volumes of buffer B with 10% glycerol and incubated with solubilized membrane fractions with gentle agitation for 2 hours. Once transferred back into propylene columns, beads were washed once with wash buffer (17 mM CHAPS, 8.5 mM asolectin in buffer B with 10% glycerol, homogenized with glass grinder and sonicated for 10 min), equilibrated with the same buffer for 1 hour with agitation and washed again. Two more washes with elution buffer (5 mM CHAPS, 200 μM asolectin in buffer B with 10% glycerol, prepared as with wash buffer) were performed prior to elution of receptors by incubation with two x 2–ml of elution buffer supplemented with 0.15 mg/ml of Flag peptide (Sigma-Aldrich) for 2 hours with gentle rocking (elution 1). Second elution (elution 2) and another overnight incubation with 2–ml (elution 3) followed.
[…] […] […] […] The curves were fitted by nonlinear least squares with weighting by standard deviation. These yielded apparent dissociation constants of 9.2 ± 0.6 and 35 ± 12 nM, respectively. The Bmax of the membranes was 22.6 ± 0.5 pmol/mg and for reconstituted receptors in micelles was 19 ± 3 pmol/mL. The Hill coefficients differed little from one (1.07 ± 0.3 and 0.90 ± 0.05 respectively).

A further test has as its system α4β3γ2 receptors. To be noted: cited from earlier work.
The next test has as its system α1β3δ GABAARs. Further details: method as in PMID 27493204. To be noted: cited from earlier work; for degree of desensitization: in 4 seconds.
A further test concerns α4β3δ receptors. To be noted: cited from earlier work.
For test [3], the system named is concatenated subunits β3-α1-δ/β3-α1. Particulars: cited from earlier work.
The mark [4] stands for this setting: 2 nM [3H]muscimol, reconstituted.
Setting [5] is: after 8.5 ms pulse of 100 μM GABA, two exponentials.
Where [6] appears, read: linear fit of activation rate up to ~10 μM GABA.
Where [7] appears, read: CHAPS/DOPC:DOPS:Cholesterol micelles.

T1 sequence (P48169 36-554): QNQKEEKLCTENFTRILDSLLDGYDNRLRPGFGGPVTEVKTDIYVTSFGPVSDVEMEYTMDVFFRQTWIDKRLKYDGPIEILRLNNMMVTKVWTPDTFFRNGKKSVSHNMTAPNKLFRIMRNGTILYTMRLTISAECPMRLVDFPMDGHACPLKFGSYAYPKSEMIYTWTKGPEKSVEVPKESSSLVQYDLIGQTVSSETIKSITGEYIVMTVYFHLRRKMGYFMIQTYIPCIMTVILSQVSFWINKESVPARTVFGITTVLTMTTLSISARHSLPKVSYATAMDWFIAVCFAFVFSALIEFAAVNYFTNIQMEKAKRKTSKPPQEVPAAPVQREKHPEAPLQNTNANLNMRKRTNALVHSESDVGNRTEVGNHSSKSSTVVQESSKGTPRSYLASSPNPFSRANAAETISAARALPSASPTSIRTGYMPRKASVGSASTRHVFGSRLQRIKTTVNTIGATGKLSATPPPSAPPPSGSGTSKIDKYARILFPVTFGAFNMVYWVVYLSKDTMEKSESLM
T1 sequence (P28472 26-473 isoform P28472-2 limits assumed): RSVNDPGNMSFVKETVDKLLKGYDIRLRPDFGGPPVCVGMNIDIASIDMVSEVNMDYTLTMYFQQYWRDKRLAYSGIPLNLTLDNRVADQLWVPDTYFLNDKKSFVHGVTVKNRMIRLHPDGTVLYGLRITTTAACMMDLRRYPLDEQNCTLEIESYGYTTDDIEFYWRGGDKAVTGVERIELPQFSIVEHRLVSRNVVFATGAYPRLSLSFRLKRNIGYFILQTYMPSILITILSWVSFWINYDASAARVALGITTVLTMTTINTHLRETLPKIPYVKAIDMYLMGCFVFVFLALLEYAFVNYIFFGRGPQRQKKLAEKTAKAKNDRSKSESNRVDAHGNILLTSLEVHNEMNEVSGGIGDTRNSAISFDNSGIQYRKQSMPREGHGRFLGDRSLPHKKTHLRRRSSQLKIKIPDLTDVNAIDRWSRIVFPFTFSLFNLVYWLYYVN
T1 sequence (O14764 25-452): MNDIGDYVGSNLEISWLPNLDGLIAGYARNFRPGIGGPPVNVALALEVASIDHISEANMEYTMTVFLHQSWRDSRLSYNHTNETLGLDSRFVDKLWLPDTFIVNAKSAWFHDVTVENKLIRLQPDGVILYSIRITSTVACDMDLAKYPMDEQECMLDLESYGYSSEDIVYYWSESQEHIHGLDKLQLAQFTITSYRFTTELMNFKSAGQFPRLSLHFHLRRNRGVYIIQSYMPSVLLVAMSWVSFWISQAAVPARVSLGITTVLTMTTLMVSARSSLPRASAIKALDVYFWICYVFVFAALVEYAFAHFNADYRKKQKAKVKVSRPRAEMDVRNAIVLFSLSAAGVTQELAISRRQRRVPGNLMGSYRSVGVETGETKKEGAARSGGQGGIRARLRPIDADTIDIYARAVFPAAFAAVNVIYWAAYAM
T4 sequence (P48169 36-554): as the sequence (P48169 36-554) above
T4 sequence (P28472 26-473 isoform P28472-2 limits assumed): as the sequence (P28472 26-473 isoform P28472-2 limits assumed) above
T4 sequence (O14764 25-452): as the sequence (O14764 25-452) above
T3 sequence (P48169 36-554): as the sequence (P48169 36-554) above
T3 sequence (P28472 26-473 isoform P28472-2 limits assumed): as the sequence (P28472 26-473 isoform P28472-2 limits assumed) above
T3 sequence (O14764 25-452): as the sequence (O14764 25-452) above
T2 sequence (P48169 36-554): as the sequence (P48169 36-554) above
T2 sequence (P28472 26-473 isoform P28472-2 limits assumed): as the sequence (P28472 26-473 isoform P28472-2 limits assumed) above

Regarding `O=C(Nc1c(-c2cccs2)nc2ccccn12)c1ccc(Cl)cc1` [DS2], the figures for the “enhancement of maximum GABA elicited currents” value on α4β3N–Flag–δ GABAAR (10 mM GABA) and at N–Flag–α4β3 receptors were 230 ± 63% and 12 ± 7%, respectively. Also, the “Hill coefficient of modulation of [3H]muscimol binding” value in test [1] (2 nM [3H]muscimol, membranes) is 0.9 ± 0.2; in test [2] (setting [4]), 1.2 ± 0.5. For the same compound, the “maximum modulation of [3H]muscimol binding” value in test [1] (2 nM [3H]muscimol, membranes) is 139 ± 4%; in test [2] (setting [4]), 132 ± 4%. Besides, the EC50 in test [1] (2 nM [3H]muscimol, native membranes, read-out: EC50 of modulation of [3H]muscimol binding) came out at 2000 ± 700 nM; in test [2] (2 nM [3H]muscimol, CHAPS/PC:PS:Cholesterol micelles, read-out: EC50 of modulation of [3H]muscimol binding), 2300 ± 800 nM. In addition, the “enhancement of displaceable [3H]muscimol binding” value in test [1] (DS2 30 μM, [3H]muscimol 2 nM, membranes) was 142 ± 12%; in test [2] (DS2 30 μM, [3H]muscimol 2 nM, CHAPS/lipid micelles), 128 ± 11%.
`NCCCC(=O)O` [GABA, γ-aminobutyric acid]: the “activation time constant τ” value came to 165 ± 20 ms on α4β3N–Flag–δ GABAAR (0.1 μM GABA) and 6 ± 1 ms at α4β3N–Flag–δ GABAAR (100 μM GABA). For the same compound, the “fraction of available channels opened (efficacy of GABA)” value on α4β3N–Flag–δ GABAAR (10 mM GABA, assumes 10 mM GABA + 10 μM etomidate opens 100% of channels) is 17 ± 6%. Also, the “desensitization time constant τ” value at α4β3N–Flag–δ GABAAR (8-sec exposure to GABA 1–100 μM, all concentrations averaged) is 2.6 ± 0.9 s; in the test with α4β3δ receptors (100 μM GABA), 4.8 s. Besides, the “fraction of total current decay amplitude occupied by fastest phase” value at α4β3N–Flag–δ GABAAR (after 8.5 ms pulse of 100 μM GABA) was determined as 76 ± 12%. Besides, at α4β3N–Flag–δ GABAAR (setting [5]), the “deactivation time constant, fastest phase” value was 175 ± 50 ms. Besides, the “deactivation time constant, slow phase” value at α4β3N–Flag–δ GABAAR (setting [5]) is given as 1100 ± 440 ms. Further, the degree of desensitization at α4β3N–Flag–δ GABAAR (in 4 seconds at 100 μM GABA) is ~ 70%; with α1β3δ GABAARs (much lower transfection ratios) it was 40–70%; in the test on α1β3δ GABAARs (transfection ratios similar to the authors'), “little desensitization”; in test [3] (after 4 s at 1 mM GABA) it was ~ 40%. The figures for the “k+1 apparent forward GABA binding rate” value on α4β3N–Flag–δ GABAAR (setting [6]) and with α4β3γ2 receptors were 5.7 ± 0.2 x 10^6 s^–1M^–1 and 6 x 10^6 s^–1M^–1, respectively. Further, the “k–1 apparent reverse GABA binding rate” value at α4β3N–Flag–δ GABAAR (setting [6]) was 5 ± 1 s^–1. The “Hill coefficient of GABA concentration-response curve” value on α4β3N–Flag–δ GABAAR (peak currents normalized to 10 mM GABA) is 1.5 ± 0.24. The “10–90% rise times” value in the test on α1β3δ GABAARs (1 mM GABA, depending on the construct ratio) is 4 to 22 ms. Besides, the “deactivation rate (time)” value in the test with α1β3δ GABAARs (construct ratio 1:1:0.3) is ~ 170 ms; in the test with α1β3δ GABAARs (varied with ratio of constructs transfected), 100 to 200 ms. For the same compound, in the test on α4β3δ receptors (100 μM GABA), the rise time was ~ 100 ms. The results for the deactivation time constant (in the test on α4β3δ receptors (lower time resolution perfusion system); in test [3]) were ~ 400 ms and ~ 50 ms, respectively. Further, the desensitization time constant in test [3] (1 mM GABA) is listed as 4.7 s.
As for `NCc1cc(=O)[nH]o1` [[^3H]muscimol], the “Bmax (sites per mg of membrane protein)” value in test [1] (cell membranes) was 22.6 ± 0.5 pmol/mg. In addition, the “apparent affinity relative to α1β3γ2 GABAAR cell line” value in test [1] (higher than in previously developed α1β3γ2 cell line (refs 13, 26)) amounted to 5 fold. For the same compound, in test [1] (read-out: apparent dissociation constant (EC50 of binding isotherm)), the EC50 came to 9.2 ± 0.6 nM. The Kd in test [2] (5 mM CHAPS and 200 μM DOPC:DOPS:Cholesterol 52:15:33 micelles, read-out: apparent dissociation constant) is 35 ± 12 nM. In addition, in test [2] (setting [7]), the Bmax came out at 19 ± 3 pmol/mL and the “Hill coefficient of binding isotherm” value is recorded as 0.90 ± 0.05.
Turning to `CCOC(=O)c1cncn1[C@H](C)c1ccccc1` [etomidate], the “enhancement of maximum GABA elicited currents” value at α4β3N–Flag–δ GABAAR (10 mM GABA) worked out at 540 ± 235%; at N–Flag–α4β3 receptors, 490 ± 84%.
picrotoxin: at α4β3N–Flag–δ GABAAR (2 mM picrotoxin for 8 s, relative to current with 10 mM GABA + 10 μM etomidate), the “fraction of spontaneously open receptors (picrotoxin-inhibited current)” value is “about 3.2 ± 0.6%”.

Usually EC50 stands for the concentration needed to bring the measured effect to its halfway point.
